Here are results for 16 compounds from US9957264B2 (Merck Sharp & Dohme Corp., priority 2013, dated 2018).

Experiment [1] addresses JAK1 (recombinant purified GST-tagged catalytic domain) (Homo sapiens (Human), UniProt P23458). The experiment is described as follows: Jak Biochemical HTRF Assay (JAK1). Particulars: [ATP] 31.8 μM. The essentials: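 Read-out is the 665/615 nm time-resolved FRET ratio from Eu-pY20 antibody and streptavidin-Dylight 650 bound to phosphorylated biotin-peptide. Reactions ran 120 min at room temperature after ATP start. Inhibition normalized to untreated controls gave IC50 via 4-parameter fit.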

For experiment [2], the target named is JAK2 (recombinant purified GST-tagged catalytic domain) (Homo sapiens (Human), UniProt O60674). In words: Jak Biochemical HTRF Assay (JAK2). Particulars: [ATP] 8.5 μM. (In general: TR-FRET usually uses a lanthanide donor and a delayed reading to cut background.)
JAK2 (recombinant purified GST-tagged catalytic domain), sequence (O60674 849-1124): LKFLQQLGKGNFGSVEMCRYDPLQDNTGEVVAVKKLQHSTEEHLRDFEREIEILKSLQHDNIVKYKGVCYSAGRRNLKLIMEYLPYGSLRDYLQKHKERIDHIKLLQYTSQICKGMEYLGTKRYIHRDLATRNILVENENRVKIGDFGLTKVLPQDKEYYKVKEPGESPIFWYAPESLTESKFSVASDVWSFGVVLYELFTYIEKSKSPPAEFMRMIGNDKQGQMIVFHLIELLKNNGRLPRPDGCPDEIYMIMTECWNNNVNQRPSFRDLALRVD

JAK1 (recombinant purified GST-tagged catalytic domain), sequence (P23458 875-1153): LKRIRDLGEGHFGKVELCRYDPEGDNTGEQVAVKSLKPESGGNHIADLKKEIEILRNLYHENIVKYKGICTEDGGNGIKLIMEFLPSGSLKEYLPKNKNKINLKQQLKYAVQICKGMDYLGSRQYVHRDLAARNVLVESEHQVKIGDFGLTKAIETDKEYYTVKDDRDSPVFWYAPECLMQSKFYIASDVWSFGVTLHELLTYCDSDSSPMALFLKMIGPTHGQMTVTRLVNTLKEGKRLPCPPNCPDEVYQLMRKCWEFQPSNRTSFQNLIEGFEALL

As to `CC(C)(C)OC(=O)N1CCC(CC#N)(n2nc(Nc3ccc(S(=O)(=O)NCC4CC4)c(F)c3)c3c(=O)[nH]ccc32)CC1` [Example 5-296, tert-butyl 4-(cyanomethyl)-4-(3-((4-(N-(cyclopropylmethyl)sulfamoyl)-3-fluorophenyl)amino)-4-oxo-4,5-dihydro-1H-pyrazolo[4,3-c]pyridin-1-yl)piperidine-1-carboxylate], the 50% inhibitory concentration (IC50) – broadly, the concentration that gives 50% inhibition – in experiment [1] worked out at 0.65 nM; in experiment [2] it was 0.91 nM.
For `CC(C)NC(c1ccc(Nc2nn([C@]3(CC#N)CCCOC3)c3cc[nH]c(=O)c23)cc1)C(F)(F)F` (single isomer, unassigned) [Example 5-205, [(3S)-3-{4-oxo-3-[(4-{(1R or 1S)-2,2,2-trifluoro-1-[(1-methylethyl)amino]ethyl}phenyl)amino]-4,5-dihydro-1H-pyrazolo[4,3-c]pyridin-1-yl}tetrahydro-2H-pyran-3-yl]acetonitrile], the 50% inhibitory concentration (IC50) was 0.17 nM in experiment [1] and 0.2 nM in experiment [2].
As for `CN(C)C(=O)[C@@H]1CC[C@@](CC#N)(n2nc(Nc3ccc(Cl)cc3)c3c(=O)[nH]ccc32)CO1` [Example 23, (2S,5S)-5-(3-((4-chlorophenyl)amino)-4-oxo-4,5-dihydro-1H-pyrazolo[4,3-c]pyridin-1-yl)-5-(cyanomethyl)-N,N-dimethyltetrahydro-2H-pyran-2-carboxamide], the IC50 was found to be 0.23 nM in experiment [1] and 2.5 nM in experiment [2].
For `CC(C)(C)OC(=O)[C@@H]1CC[C@@](CC#N)(n2nc(Nc3ccc(C4(C(F)(F)F)CCCCN4)cc3)c3c(=O)[nH]ccc32)CO1` (single isomer, unassigned) [Example 5-286, (2S,5S)-tert-butyl 5-(cyanomethyl)-5-(4-oxo-3-((4-((S or R)-2-(trifluoromethyl)piperidin-2-yl)phenyl)amino)-4,5-dihydro-1H-pyrazolo[4,3-c]pyridin-1-yl)tetrahydro-2H-pyran-2-carboxylate], in that order: 0.24 nM and 0.33 nM.
With `Cc1cc(Nc2nn([C@@]3(CC#N)CCOC[C@H]3F)c3cc[nH]c(=O)c23)ccc1C(=O)N1CCSCC1` (single isomer, unassigned) [Example 5-261, 2-((3S,4S or 3R,4R)-3-fluoro-4-(3-(3-methyl-4-(thiomorpholine-4-carbonyl)phenylamino)-4-oxo-4,5-dihydropyrazolo[4,3-c]pyridin-1-yl)-tetrahydro-2H-pyran-4-yl)acetonitrile], the values for the IC50 in experiment [1] and in experiment [2] were 2.26 nM and 2.74 nM, respectively.
The corresponding values for `Cc1nc2ccc(Nc3nn([C@]4(CC#N)CC[C@@H](C(=O)OC(C)(C)C)OC4)c4cc[nH]c(=O)c34)cc2s1` [Example 21-1, (2S,5S)-tert-butyl 5-(cyanomethyl)-5-(3-((2-methylbenzo[d]thiazol-6-yl)amino)-4-oxo-4,5-dihydro-1H-pyrazolo[4,3-c]pyridin-1-yl)tetrahydro-2H-pyran-2-carboxylate] are 0.08 nM and 0.73 nM.
On to `CN(C)S(=O)(=O)c1ccc(Nc2nn(C3(CC#N)CCN(C(=O)CN4CCCC4=O)CC3)c3cc[nH]c(=O)c23)cc1` [Example 9-19, 4-[(1-{4-(cyanomethyl)-1-[(2-oxopyrrolidin-1-yl)acetyl]piperidin-4-yl}-4-oxo-4,5-dihydro-1H-pyrazolo[4,3-c]pyridin-3-yl)amino]-N,N-dimethylbenzenesulfonamide], for which the IC50 in experiment [1] came to 0.26 nM; in experiment [2], 3.14 nM.
For `COC(=O)N1CCC(CC#N)(n2nc(Nc3ccc(C#N)cc3)c3c(=O)[nH]ccc32)CC1` [Example 5-145, methyl 4-(cyanomethyl)-4-(3-((4-cyanophenyl)amino)-4-oxo-4,5-dihydro-1H-pyrazolo[4,3-c]pyridin-1-yl)piperidine-1-carboxylate], in that order: 0.19 nM and 1.22 nM.
The corresponding values for `CN(C(C)(C)C)S(=O)(=O)c1ccc(Nc2nn(C3(CC#N)CCCC3)c3cc[nH]c(=O)c23)cc1` [Example 5-134, N-(tert-butyl)-4-((1-(1-(cyanomethyl)cyclopentyl)-4-oxo-4,5-dihydro-1H-pyrazolo[4,3-c]pyridin-3-yl)amino)-N-methylbenzene sulfonamide] are 0.7 nM and 1.07 nM.
For `CC(C)(C)OC(=O)N1CC(CC#N)(n2nc(Nc3ccc(S(=O)(=O)C(F)(F)F)cc3)c3c(=O)[nH]ccc32)C1` [Example 5-47, tert-butyl 3-(cyanomethyl)-3-[4-oxo-3-({4-[(trifluoromethyl)sulfonyl]phenyl}amino)-4,5-dihydro-1H-pyrazolo[4,3-c]pyridin-1-yl]azetidine-1-carboxylate], in that order: 7.27 nM and 108 nM.
In the case of `CC(C)(C)N[C@@H](c1ccc(Nc2nn([C@@]3(CC#N)CCOC[C@H]3F)c3cc[nH]c(=O)c23)cc1)C(F)(F)F` (single isomer, unassigned) [Example 5-268, 2-((3S,4S or 3R,4R)-4-(3-((4-((S or R)-1-(tert-butylamino)-2,2,2-trifluoroethyl)phenyl)amino)-4-oxo-4,5-dihydro-1H-pyrazolo[4,3-c]pyridin-1-yl)-3-fluorotetrahydro-2H-pyran-4-yl)acetonitrile], the 50% inhibitory concentration (IC50) in experiment [1] was 2.63 nM; in experiment [2], 4.78 nM.
`C[C@@H]1CCCC1OC(=O)N1CCC(CC#N)(n2nc(Nc3ccc(S(=O)(=O)N(C)C)cc3)c3c(=O)[nH]ccc32)CC1` (mixture of isomers) [Example 11-2, (trans racemic)-2-methylcyclopentyl 4-(cyanomethyl)-4-(3-((4-(N,N-dimethylsulfamoyl)phenyl)amino)-4-oxo-4,5-dihydro-1H-pyrazolo[4,3-c]pyridin-1-yl)piperidine-1-carboxylate]: the IC50 was found to be 0.38 nM in experiment [1] and 1.69 nM in experiment [2].
Consider `CN(C)c1ccc2cc(Nc3nn([C@]4(CC#N)CCCOC4)c4cc[nH]c(=O)c34)ccc2n1` [Example 5-225, (S)-2-(3-(3-((2-(dimethylamino)quinolin-6-yl)amino)-4-oxo-4,5-dihydro-1H-pyrazolo[4,3-c]pyridin-1-yl)tetrahydro-2H-pyran-3-yl)acetonitrile], for which the half-inhibitory concentration (IC50) came to 0.15 nM in experiment [1] and 2.3 nM in experiment [2].
For `COC(=O)N1CCC(CC#N)(n2nc(Nc3ccc4ncccc4c3)c3c(=O)[nH]ccc32)CC1` [Example 5-148, methyl 4-(cyanomethyl)-4-(4-oxo-3-(quinolin-6-ylamino)-4,5-dihydro-1H-pyrazolo[4,3-c]pyridin-1-yl)piperidine-1-carboxylate], the IC50 is 0.08 nM in experiment [1] and 0.84 nM in experiment [2].
On to `CN(C)S(=O)(=O)c1ccc(Nc2nn([C@]3(CC#N)CC[C@@H](C(=O)OC(C)(C)C)OC3)c3cc[nH]c(=O)c23)cc1` [Example 5-43, (2S,5S)-tert-butyl 5-(cyanomethyl)-5-(3-((4-(N,N-dimethylsulfamoyl)phenyl)amino)-4-oxo-4,5-dihydro-1H-pyrazolo[4,3-c]pyridin-1-yl)tetrahydro-2H-pyran-2-carboxylate], for which the IC50 in experiment [1] is 0.07 nM; in experiment [2], 0.14 nM.
The corresponding values for `CN(C)S(=O)(=O)c1cccc(Nc2nn(C3(CC#N)CCN(Cc4cccnc4)CC3)c3cc[nH]c(=O)c23)c1` [Example 8-19, 3-({1-[4-(cyanomethyl)-1-(pyridin-3-ylmethyl)piperidin-4-yl]-4-oxo-4,5-dihydro-1H-pyrazolo[4,3-c]pyridin-3-yl}amino)-N,N-dimethylbenzenesulfonamide] are 1.19 nM and 1.98 nM.
